Source: article PMC8191290, “Substrate specificities and reaction kinetics of the yeast oligosaccharyltransferase isoforms” (The Journal of Biological Chemistry, 2021)

Target: T1, OST6 complex (Saccharomyces cerevisiae, UniProt P39007)
T1 construct: were purified separately from strains expressing only one type of complex; made in house; host or cells: Saccharomyces cerevisiae, BY4742-derived strain ost3::LEU2MX6 OST4-1D4::kanMX6 YEp352-OST6
Assay: In vitro glycosylation assay, acceptor peptides, OST6 complex
Type: biochemical
Conditions: for OST6 complex activity compared with OST3 complex, in words: synthetic chitobiose-containing LLO, TAMRA-YANATS with 50 μM LLO C20 (Fig. 5A), TAMRA-DANYTK data not shown
Protocol: Figure 5 OST3 complex turns over both glycosylation substrates faster than the OST6 complex, but with similar substrate affinities.A, enzyme activity of OST3 and OST6 complexes. Reactions were performed with 25 μM peptide TAMRA-YANATS, 50 μM LLO C20, and varying concentrations of purified OST3 complex (blue) or OST6 complex (red). Glycopeptide product was measured by UPLC and initial rates of reaction were determined by linear regression of the initial phase of the reaction. Turnover rates were determined by linear regression of the initial rates of reaction measured across the enzyme concentrations of 0.01–0.1 μM for OST3 complex and 0.1–0.5 μM for OST6 complex. Error bars indicate standard deviations from the mean of three reaction sets (n = 3). B, synthetic LLO preferences of OST3 and OST6 complexes. Reactions were performed with 25 μM peptide TAMRA-YANATS, 50 μM of the indicated LLO (C15, C20, or C25) and 0.09 μM of purified OST3 complex (blue) or 0.5 μM OST6 complex (red). Turnover rates were determined by linear regression of the initial phase of the reaction and accounting for the enzyme concentration in the reaction. Error bars indicate standard deviations from the mean of three reactions (n = 3). C, quantification of kinetic parameters for the synthetic LLO C20. Reactions were performed with 25 μM peptide TAMRA-YANATS, varying concentrations of synthetic LLO C20, and either 0.1 μM purified OST3 complex (blue) or 0.5 μM OST6 complex (red). Turnover rates were determined by linear regression of the initial phase of the reaction and accounting for the enzyme concentration in the reaction. The mean of three reactions is shown and the data were fitted by nonlinear regression according to the Michaelis–Menten formula (R^2 = 0.9685 (OST3 complex), 0.9720 (OST6 complex)) using Prism. Error bars indicate standard deviations from the mean (n = 3). Asterisk indicates a data point not included in the Michaelis–Menten fitting, due to poor fitting. D, quantification of kinetic parameters for the peptide TAMRA-YANATS. Reactions were performed with 100 μM synthetic LLO C20, varying concentrations of peptide TAMRA-YANATS, and 0.1 μM purified OST3 complex (blue) or OST6 complex (red). Turnover rates were determined by linear regression of the initial phase of the reaction and accounting for the enzyme concentration in the reaction. The mean of three reactions is shown and the data were fitted by nonlinear regression according to the Michaelis–Menten formula (R^2 = 0.9794 (OST3 complex), 0.9214 (OST6 complex)) using Prism. Error bars indicate standard deviations from the mean (n = 3). Asterisk indicates data points not included in the Michaelis–Menten fitting, due to poor fitting. E, SDS-PAGE (14 % acrylamide) silver staining of 0.2 μg purified OST3 complex, OST6 complex, and OST3 complex purified from alg6Δ cells. Multiple bands of Ost1p and Wbp1p represent the fully and hypoglycosylated forms of the proteins. Ost4p is tagged with the 1D4 epitope for purification. F, enzyme activity of OST complexes. Reactions were performed with 100 μM peptide TAMRA-YANATS, 50 μM LLO C20, and varying concentrations from 0.1 to 0.3 μM of purified OST3 complex, OST6 complex, or OST3 complex purified from alg6Δ cells. Turnover rates were determined as in A by linear regression of the initial rates of reaction across the enzyme concentrations of 0.1–0.3 μM for each OST. Error bars indicate the standard deviation from the mean turnover rate of three reaction sets (n = 3).
TAMRA-labeled peptides with 5-TAMRA at the N-terminus and an amide group at the C-terminus were synthesized by WatsonBio Sciences. Unlabeled peptides (Table S1) were synthesized by Genscript Corp. and were designed so that the asparagine of the glycosylation sequon was in the middle (except for Peptide 8). Lyophilized peptides were dissolved in dimethyl sulfoxide (DMSO), unless specified otherwise, to a 3 mM stock solution and further diluted in ddH2O for reactions. […]

Row | Substance | OST6 complex activity compared with OST3 complex, in words | kcat/KM (0.1 μM OST6 complex, 100 μM LLO C20) [min^-1 μM^−s1] | kcat (apparent) (0.1 μM OST6 complex, 100 μM LLO C20, varying peptide, 30 °C, n = 3) [s⁻¹] | Km (0.1 μM OST6 complex, 100 μM LLO C20, varying peptide, 30 °C, n = 3, read-out: KM (apparent)) [µM] | affinity for the peptide substrate, OST6 compared with OST3 complex, in words (100 μM LLO C20) | peptide turnover rate of OST6 complex compared with OST3 complex (100 μM LLO C20, TAMRA-YANATS varied)
1 | TAMRA-DANYTK-NH2 [fluorescently labeled hexapeptide TAMRA-DANYTK-NH2 as the acceptor peptide, reference compound] | reduced |  |  |  |  | 
2 | TAMRA-YANATS [shorter version of Peptide 5 of only six amino acid residues (TAMRA-YANATS)] | drastically reduced | 0.05 | 0.0383 ± 0.0033 | 44.8 ± 5.7 | similar | reduced six times
